Measurements taken from ChEMBL document CHEMBL2157914, “Synthesis, anti-inflammatory and antimicrobial evaluation of novel 1-acetyl-3,5-diaryl-4,5-dihydro (1H) pyrazole derivatives bearing urea, thiourea and sulfonamide moieties” (2012).
Values after ≈ are worked out from the molar mass of the structure shown.

These molecules were tested on Candida albicans (assay: Antifungal activity against Candida albicans MTCC 227 after 2 to 3 days by agar well diffusion method). Conditions: not given.
Format: functional

COc1ccc(C2=NN(C(C)=O)C(c3ccc(NC(=O)Nc4ccc(C(F)(F)F)cc4Cl)cc3)C2)cc1OC (stereo not drawn) and COc1ccc(C2=NN(C(C)=O)C(c3ccc(NC(=O)Nc4ccccc4F)cc3)C2)cc1OC (stereo not drawn) are within 1.5-fold of each other in MIC: 55 µg/mL (≈ 98 µM) for the first, 80 µg/mL (≈ 168 µM) for the second.

Compared with COc1ccc(C2=NN(C(C)=O)C(c3ccc(NS(=O)(=O)c4cc(F)ccc4C)cc3)C2)cc1OC (stereo not drawn), COc1ccc(C2=NN(C(C)=O)C(c3ccc(NS(=O)(=O)c4ccc(OC(F)(F)F)cc4)cc3)C2)cc1OC (stereo not drawn) is 1.5-fold higher in MIC: 30 µg/mL (≈ 58.6 µM) for the first, 45 µg/mL (≈ 79.9 µM) for the second.

COc1ccc(C2=NN(C(C)=O)C(c3ccc(NC(=S)Nc4ccc(C#N)cc4)cc3)C2)cc1OC (stereo not drawn) and COc1cccc(NC(=S)Nc2ccc(C3CC(c4ccc(OC)c(OC)c4)=NN3C(C)=O)cc2)c1 (stereo not drawn) are within 1.5-fold of each other in MIC: 55 µg/mL (≈ 110 µM) for the first, 80 µg/mL (≈ 159 µM) for the second.

These molecules were tested on Aspergillus flavus (assay: Antifungal activity against Aspergillus flavus MTCC 277 after 2 to 3 days by agar well diffusion method). Conditions: not given.
Format: functional

First: COc1ccc(C2=NN(C(C)=O)C(c3ccc(NC(=O)Nc4ccc(C(F)(F)F)cc4Cl)cc3)C2)cc1OC (stereo not drawn)
Second: COc1ccc(C2=NN(C(C)=O)C(c3ccc(NC(=O)Nc4ccccc4F)cc3)C2)cc1OC (stereo not drawn)
The MIC of the first is 4-fold lower: 20 µg/mL (≈ 35.7 µM) for the first, 80 µg/mL (≈ 168 µM) for the second.

COc1ccc(C2=NN(C(C)=O)C(c3ccc(NS(=O)(=O)c4cc(F)ccc4C)cc3)C2)cc1OC (stereo not drawn) and COc1ccc(C2=NN(C(C)=O)C(c3ccc(NS(=O)(=O)c4ccc(OC(F)(F)F)cc4)cc3)C2)cc1OC (stereo not drawn) are the same in MIC: 20 µg/mL (≈ 39.1 µM) for the first, 20 µg/mL (≈ 35.5 µM) for the second.

First: COc1ccc(C2=NN(C(C)=O)C(c3ccc(NC(=S)Nc4ccc(C#N)cc4)cc3)C2)cc1OC (stereo not drawn)
Second: COc1cccc(NC(=S)Nc2ccc(C3CC(c4ccc(OC)c(OC)c4)=NN3C(C)=O)cc2)c1 (stereo not drawn)
The MIC of the first is 2.7-fold lower: 35 µg/mL (≈ 70.1 µM) for the first, 95 µg/mL (≈ 188 µM) for the second.

These molecules were tested on THP-1 (assay: Antiinflammatory activity in human THP1 cells assessed as inhibition of LPS-stimulated IL-6 production at 10 uM incubated for 30 mins prior to LPS-challenge measured 24 hrs post LPS-challenge by ELISA). Conditions: not given.
Format: functional

First: COc1ccc(C2=NN(C(C)=O)C(c3ccc(NC(=O)Nc4ccc(C(F)(F)F)cc4Cl)cc3)C2)cc1OC (stereo not drawn)
Second: COc1ccc(C2=NN(C(C)=O)C(c3ccc(NC(=O)Nc4ccccc4F)cc3)C2)cc1OC (stereo not drawn)
The inhibition at 10 µM of the first is lower: 8% for the first, 93% for the second.

Compared with COc1ccc(C2=NN(C(C)=O)C(c3ccc(NS(=O)(=O)c4cc(F)ccc4C)cc3)C2)cc1OC (stereo not drawn), COc1ccc(C2=NN(C(C)=O)C(c3ccc(NS(=O)(=O)c4ccc(OC(F)(F)F)cc4)cc3)C2)cc1OC (stereo not drawn) is higher in inhibition at 10 µM: 0% for the first, 30% for the second.

Compared with COc1ccc(C2=NN(C(C)=O)C(c3ccc(NC(=S)Nc4ccc(C#N)cc4)cc3)C2)cc1OC (stereo not drawn), COc1cccc(NC(=S)Nc2ccc(C3CC(c4ccc(OC)c(OC)c4)=NN3C(C)=O)cc2)c1 (stereo not drawn) is higher in inhibition at 10 µM: 21% for the first, 26% for the second.

Each molecule was assayed on Aspergillus niger (assay: Antifungal activity against Aspergillus niger MTCC 281 after 2 to 3 days by agar well diffusion method). Conditions: not given.
Format: functional

Compared with COc1ccc(C2=NN(C(C)=O)C(c3ccc(NC(=O)Nc4ccc(C(F)(F)F)cc4Cl)cc3)C2)cc1OC (stereo not drawn), COc1ccc(C2=NN(C(C)=O)C(c3ccc(NC(=O)Nc4ccccc4F)cc3)C2)cc1OC (stereo not drawn) is 2.3-fold higher in MIC: 35 µg/mL (≈ 62.4 µM) for the first, 80 µg/mL (≈ 168 µM) for the second.

First: COc1ccc(C2=NN(C(C)=O)C(c3ccc(NS(=O)(=O)c4cc(F)ccc4C)cc3)C2)cc1OC (stereo not drawn)
Second: COc1ccc(C2=NN(C(C)=O)C(c3ccc(NS(=O)(=O)c4ccc(OC(F)(F)F)cc4)cc3)C2)cc1OC (stereo not drawn)
The MIC of the first is 2.4-fold higher: 60 µg/mL (≈ 117 µM) for the first, 25 µg/mL (≈ 44.4 µM) for the second.

Compared with COc1ccc(C2=NN(C(C)=O)C(c3ccc(NC(=S)Nc4ccc(C#N)cc4)cc3)C2)cc1OC (stereo not drawn), COc1cccc(NC(=S)Nc2ccc(C3CC(c4ccc(OC)c(OC)c4)=NN3C(C)=O)cc2)c1 (stereo not drawn) is 4.8-fold higher in MIC: 20 µg/mL (≈ 40 µM) for the first, 95 µg/mL (≈ 188 µM) for the second.

Each molecule was assayed on Bacillus subtilis (assay: Antibacterial activity against Bacillus subtilis MTCC 441 after 24 hrs by agar well diffusion method). Conditions: MTCC 441, 24 h.
Format: functional

Compared with O=C(O)c1cn(C2CC2)c2cc(N3CCNCC3)c(F)cc2c1=O [CIPROFLOXACIN], COc1ccc(C2=NN(C(C)=O)C(c3ccc(NC(=O)Nc4ccccc4F)cc3)C2)cc1OC (stereo not drawn) is 5.3-fold higher in MIC: 15 µg/mL (≈ 45.3 µM) for the first, 80 µg/mL (≈ 168 µM) for the second.

Compared with COc1ccc(C2=NN(C(C)=O)C(c3ccc(NC(=O)Nc4ccc(C(F)(F)F)cc4Cl)cc3)C2)cc1OC (stereo not drawn), COc1cccc(NC(=S)Nc2ccc(C3CC(c4ccc(OC)c(OC)c4)=NN3C(C)=O)cc2)c1 (stereo not drawn) is 1.5-fold higher in MIC: 60 µg/mL (≈ 107 µM) for the first, 90 µg/mL (≈ 178 µM) for the second.

Compared with COc1ccc(C2=NN(C(C)=O)C(c3ccc(NS(=O)(=O)c4cc(F)ccc4C)cc3)C2)cc1OC (stereo not drawn), COc1ccc(C2=NN(C(C)=O)C(c3ccc(NS(=O)(=O)c4ccc(OC(F)(F)F)cc4)cc3)C2)cc1OC (stereo not drawn) is 2.2-fold higher in MIC: 20 µg/mL (≈ 39.1 µM) for the first, 45 µg/mL (≈ 79.9 µM) for the second.

Molecule COc1ccc(C2=NN(C(C)=O)C(c3ccc(NC(=S)Nc4ccc(C#N)cc4)cc3)C2)cc1OC (stereo not drawn) has an MIC of 35 µg/mL (≈ 70.1 µM).

Each molecule was assayed on Staphylococcus aureus (assay: Antibacterial activity against Staphylococcus aureus MTCC 96 after 24 hrs by agar well diffusion method). Conditions: MTCC 96, 24 h.
Format: functional

Compared with O=C(O)c1cn(C2CC2)c2cc(N3CCNCC3)c(F)cc2c1=O [CIPROFLOXACIN], COc1ccc(C2=NN(C(C)=O)C(c3ccc(NC(=O)Nc4ccccc4F)cc3)C2)cc1OC (stereo not drawn) is 3-fold higher in MIC: 20 µg/mL (≈ 60.4 µM) for the first, 60 µg/mL (≈ 126 µM) for the second.

Compared with COc1ccc(C2=NN(C(C)=O)C(c3ccc(NC(=O)Nc4ccc(C(F)(F)F)cc4Cl)cc3)C2)cc1OC (stereo not drawn), COc1cccc(NC(=S)Nc2ccc(C3CC(c4ccc(OC)c(OC)c4)=NN3C(C)=O)cc2)c1 (stereo not drawn) is 1.6-fold higher in MIC: 35 µg/mL (≈ 62.4 µM) for the first, 55 µg/mL (≈ 109 µM) for the second.

First: COc1ccc(C2=NN(C(C)=O)C(c3ccc(NS(=O)(=O)c4cc(F)ccc4C)cc3)C2)cc1OC (stereo not drawn)
Second: COc1ccc(C2=NN(C(C)=O)C(c3ccc(NS(=O)(=O)c4ccc(OC(F)(F)F)cc4)cc3)C2)cc1OC (stereo not drawn)
The MIC of the first is 2.8-fold higher: 55 µg/mL (≈ 108 µM) for the first, 20 µg/mL (≈ 35.5 µM) for the second.

With COc1ccc(C2=NN(C(C)=O)C(c3ccc(NC(=S)Nc4ccc(C#N)cc4)cc3)C2)cc1OC (stereo not drawn) the MIC was 60 µg/mL (≈ 120 µM).

What follows are molecules tested on Escherichia coli (assay: Antibacterial activity against Escherichia coli MTCC 443 after 24 hrs by agar well diffusion method). Conditions: MTCC 443, 24 h.
Format: functional

Going from O=C(O)c1cn(C2CC2)c2cc(N3CCNCC3)c(F)cc2c1=O [CIPROFLOXACIN] to COc1ccc(C2=NN(C(C)=O)C(c3ccc(NC(=O)Nc4ccccc4F)cc3)C2)cc1OC (stereo not drawn), the MIC rises from 15 µg/mL (≈ 45.3 µM) to 45 µg/mL (≈ 94.4 µM) (3-fold).

Going from COc1ccc(C2=NN(C(C)=O)C(c3ccc(NC(=O)Nc4ccc(C(F)(F)F)cc4Cl)cc3)C2)cc1OC (stereo not drawn) to COc1cccc(NC(=S)Nc2ccc(C3CC(c4ccc(OC)c(OC)c4)=NN3C(C)=O)cc2)c1 (stereo not drawn), the MIC rises from 45 µg/mL (≈ 80.2 µM) to 70 µg/mL (≈ 139 µM) (1.6-fold).

COc1ccc(C2=NN(C(C)=O)C(c3ccc(NS(=O)(=O)c4cc(F)ccc4C)cc3)C2)cc1OC (stereo not drawn) and COc1ccc(C2=NN(C(C)=O)C(c3ccc(NS(=O)(=O)c4ccc(OC(F)(F)F)cc4)cc3)C2)cc1OC (stereo not drawn) are within 1.5-fold of each other in MIC: 20 µg/mL (≈ 39.1 µM) for the first, 15 µg/mL (≈ 26.6 µM) for the second.

COc1ccc(C2=NN(C(C)=O)C(c3ccc(NC(=S)Nc4ccc(C#N)cc4)cc3)C2)cc1OC (stereo not drawn) was tested, and the MIC was 30 µg/mL (≈ 60 µM).

The molecules below were run on THP-1 (assay: Antiinflammatory activity in human THP1 cells assessed as inhibition of LPS-stimulated TNFalpha production at 10 uM incubated for 30 mins prior to LPS-challenge measured 24 hrs post LPS challenge by ELISA). Conditions: not given.
Format: functional

Going from COc1ccc(C2=NN(C(C)=O)C(c3ccc(NC(=O)Nc4ccc(C(F)(F)F)cc4Cl)cc3)C2)cc1OC (stereo not drawn) to COc1ccc(C2=NN(C(C)=O)C(c3ccc(NC(=O)Nc4ccccc4F)cc3)C2)cc1OC (stereo not drawn), the inhibition at 10 µM rises from 3% to 85%.

Compared with COc1ccc(C2=NN(C(C)=O)C(c3ccc(NS(=O)(=O)c4cc(F)ccc4C)cc3)C2)cc1OC (stereo not drawn), COc1ccc(C2=NN(C(C)=O)C(c3ccc(NS(=O)(=O)c4ccc(OC(F)(F)F)cc4)cc3)C2)cc1OC (stereo not drawn) is higher in inhibition at 10 µM: 0% for the first, 8% for the second.

Going from COc1ccc(C2=NN(C(C)=O)C(c3ccc(NC(=S)Nc4ccc(C#N)cc4)cc3)C2)cc1OC (stereo not drawn) to COc1cccc(NC(=S)Nc2ccc(C3CC(c4ccc(OC)c(OC)c4)=NN3C(C)=O)cc2)c1 (stereo not drawn), the inhibition at 10 µM rises from 0% to 11%.

What follows are molecules tested on Fusarium solani (assay: Antifungal activity against Fusarium solani MTCC 350 after 2 to 3 days by agar well diffusion method). Conditions: not given.
Format: functional

Compared with COc1ccc(C2=NN(C(C)=O)C(c3ccc(NC(=O)Nc4ccc(C(F)(F)F)cc4Cl)cc3)C2)cc1OC (stereo not drawn), COc1ccc(C2=NN(C(C)=O)C(c3ccc(NC(=O)Nc4ccccc4F)cc3)C2)cc1OC (stereo not drawn) is 4.5-fold higher in MIC: 20 µg/mL (≈ 35.7 µM) for the first, 90 µg/mL (≈ 189 µM) for the second.

First: COc1ccc(C2=NN(C(C)=O)C(c3ccc(NS(=O)(=O)c4cc(F)ccc4C)cc3)C2)cc1OC (stereo not drawn)
Second: COc1ccc(C2=NN(C(C)=O)C(c3ccc(NS(=O)(=O)c4ccc(OC(F)(F)F)cc4)cc3)C2)cc1OC (stereo not drawn)
The MIC of the first is 1.8-fold lower: 20 µg/mL (≈ 39.1 µM) for the first, 35 µg/mL (≈ 62.1 µM) for the second.

Work on COc1ccc(C2=NN(C(C)=O)C(c3ccc(NC(=S)Nc4ccc(C#N)cc4)cc3)C2)cc1OC (stereo not drawn) yielded an MIC of 20 µg/mL (≈ 40 µM).

The molecules below were run on Salmonella typhimurium (assay: Antibacterial activity against Salmonella typhimurium MTCC 98 after 24 hrs by agar well diffusion method). Conditions: Salmonella enterica, MTCC 98, 24 h.
Format: functional, Salmonella enterica subsp. enterica serovar Typhimurium

Compared with O=C(O)c1cn(C2CC2)c2cc(N3CCNCC3)c(F)cc2c1=O [CIPROFLOXACIN], COc1ccc(C2=NN(C(C)=O)C(c3ccc(NC(=O)Nc4ccccc4F)cc3)C2)cc1OC (stereo not drawn) is 4-fold higher in MIC: 20 µg/mL (≈ 60.4 µM) for the first, 80 µg/mL (≈ 168 µM) for the second.

COc1ccc(C2=NN(C(C)=O)C(c3ccc(NC(=O)Nc4ccc(C(F)(F)F)cc4Cl)cc3)C2)cc1OC (stereo not drawn) and COc1cccc(NC(=S)Nc2ccc(C3CC(c4ccc(OC)c(OC)c4)=NN3C(C)=O)cc2)c1 (stereo not drawn) are within 1.5-fold of each other in MIC: 80 µg/mL (≈ 143 µM) for the first, 90 µg/mL (≈ 178 µM) for the second.

Compared with COc1ccc(C2=NN(C(C)=O)C(c3ccc(NS(=O)(=O)c4cc(F)ccc4C)cc3)C2)cc1OC (stereo not drawn), COc1ccc(C2=NN(C(C)=O)C(c3ccc(NS(=O)(=O)c4ccc(OC(F)(F)F)cc4)cc3)C2)cc1OC (stereo not drawn) is 1.6-fold higher in MIC: 40 µg/mL (≈ 78.2 µM) for the first, 65 µg/mL (≈ 115 µM) for the second.

COc1ccc(C2=NN(C(C)=O)C(c3ccc(NC(=S)Nc4ccc(C#N)cc4)cc3)C2)cc1OC (stereo not drawn) was tested, and the MIC was 45 µg/mL (≈ 90.1 µM).
